According to PMC4303209, “A novel phosphatidylinositol 3-kinase (PI3K) inhibitor directs a potent FOXO-dependent, p53-independent cell cycle arrest phenotype characterized by the differential induction of a subset of FOXO-regulated genes” (Breast Cancer Research : BCR, 2014):

Tested on: MCF-7 breast cancer cells
Experiment: Microarray gene expression analysis (Agilent whole human genome 4 x 44K; compound vs DMSO, LIMMA log2 fold change)
Format: cell-based

For `Cn1ncc2c(N3CCOCC3)nc(-c3cccc(O)c3)nc21` [ETP-45658], the “PDGFRB log2FC” value (gene PDGFRB (5159), apoptosis genes) was 0.022, the “PEG3 log2FC” value (gene PEG3 (5178), apoptosis genes) was 0.028 and the “PEG10 log2FC” value (gene PEG10 (23089), apoptosis genes) was 0.064. For the same compound, the “PF4 log2FC” value (gene PF4 (5196), apoptosis genes) was -0.049, the “PHLDA3 log2FC” value (gene PHLDA3 (23612), apoptosis genes) was -0.007 and the “PIK3CG log2FC” value (gene PIK3CG (5294), apoptosis genes) was -0.029. The “PKP1 log2FC” value (gene PKP1 (5317), apoptosis genes) was -0.004, the “PLEKHG5 log2FC” value (gene PLEKHG5 (57449), apoptosis genes) was 0.079 and the “PLSCR3 log2FC” value (gene PLSCR3 (57048), apoptosis genes) was -0.068. The “POLB log2FC” value (gene POLB (5423), apoptosis genes) was 0.060, the log2FC (gene POLD4 (Gene 57804), cell cycle genes) was -0.353 and the “POR log2FC” value (gene POR (5447), apoptosis genes) was 0.00332. The “POU3F4 log2FC” value (gene POU3F4 (5456), apoptosis genes) was -0.034, the “POU4F1 log2FC” value (gene POU4F1, apoptosis genes) was 0.016 and the log2FC (gene PPAT (Gene 10606), cell cycle genes) was 0.187. The log2FC (gene PPP1CA (Gene 5499), cell cycle genes) was -0.227, the log2FC (gene PPP2CA (Gene 5515), cell cycle genes) was -0.322 and the “PPP2R1A log2FC” value (gene PPP2R1A (5518), apoptosis genes) was -0.055. The “PRAMEF8 log2FC” value (gene PRAMEF8 (391002), apoptosis genes) was 0.019, the “PRAMEF10 log2FC” value (gene PRAMEF10 (343071), apoptosis genes) was 0.00225 and the log2FC (gene PRKACB (Gene 5567), cell cycle genes) was 0.355. The “log2FC PRKAG3” value (gene PRKAG3 (Gene 53632), cell cycle genes) was -0.00189, the “PRKRA log2FC” value (gene PRKRA (8575), apoptosis genes) was 0.029 and the “PRLR log2FC” value (gene PRLR (5618), apoptosis genes) was -0.012. For the same compound, the “PROC log2FC” value (gene PROC (5624), apoptosis genes) was 0.006, the “PROP1 log2FC” value (gene PROP1 (5626), apoptosis genes) was -0.275 and the “PSMA1 log2FC” value (gene PSMA1 (5682), apoptosis genes) was 0.045. For the same compound, the log2FC (gene PSMA2 (Gene 5683), cell cycle genes) was 0.460, the log2FC (gene PSMA3 (Gene 5684), cell cycle genes) was 0.270 and the “PSMA5 log2FC” value (gene PSMA5 (5686), apoptosis genes) was -0.038. The “log2FC PSMA5” value (gene PSMA5 (Gene 5686), cell cycle genes) was -0.038, the “PSMA7 log2FC” value (gene PSMA7 (5688), apoptosis genes) was 0.359 and the “log2FC PSMA7” value (gene PSMA7 (Gene 5688), cell cycle genes) was 0.359. For the same compound, the “PSMB3 log2FC” value (gene PSMB3 (5691), apoptosis genes) was -0.030, the log2FC (gene PSMB4 (Gene 5692), cell cycle genes) was 0.132 and the “PSMB7 log2FC” value (gene PSMB7 (5695), apoptosis genes) was -0.00851. The “log2FC PSMB7” value (gene PSMB7 (Gene 5695), cell cycle genes) was -0.00851, the “PSMB8 log2FC” value (gene PSMB8 (5696), apoptosis genes) was -0.045 and the “PSMC4 log2FC” value (gene PSMC4 (5704), apoptosis genes) was -0.021. The “log2FC PSMC4” value (gene PSMC4 (Gene 5704), cell cycle genes) was -0.021, the “PSMD2 log2FC” value (gene PSMD2 (5708), apoptosis genes) was 0.090 and the “PSMD13 log2FC” value (gene PSMD13 (5719), apoptosis genes) was -0.031. For the same compound, the log2FC (gene PSMD14 (Gene 10213), cell cycle genes) was 0.447, the log2FC (gene PSME1 (Gene 5720), cell cycle genes) was 0.322 and the “PSME2 log2FC” value (gene PSME2 (5721), apoptosis genes) was 0.039. For the same compound, the log2FC (gene PTTG1 (Gene 9232), cell cycle genes) was -0.269, the “PYCARD log2FC” value (gene PYCARD (29108), apoptosis genes) was -0.070 and the log2FC (gene RAB11FIP3 (Gene 9727), cell cycle genes) was -0.225. The “log2FC RAD51C” value (gene RAD51C (Gene 5889), cell cycle genes) was -0.019, the “log2FC RAE1” value (gene RAE1 (Gene 8480), cell cycle genes) was 0.005 and the “RAF1 log2FC” value (gene RAF1 (5894), apoptosis genes) was -0.038. For the same compound, the log2FC (gene RALA (Gene 5898), cell cycle genes) was 0.348, the log2FC (gene RALB (Gene 5899), cell cycle genes) was 0.324 and the “RAMP2 log2FC” value (gene RAMP2 (10266), apoptosis genes) was -0.017. For the same compound, the “log2FC RANGAP1” value (gene RANGAP1 (Gene 5905), cell cycle genes) was -0.026, the “RAPSN log2FC” value (gene RAPSN (5913), apoptosis genes) was -0.022 and the “RARB log2FC” value (gene RARB (5915), apoptosis genes) was 0.00564. The “RASSF6 log2FC” value (gene RASSF6 (166824), apoptosis genes) was 0.042, the log2FC (gene RBBP8 (Gene 5932), cell cycle genes) was 0.568 and the log2FC (gene RBL1 (Gene 5933), cell cycle genes) was 0.284. The log2FC (gene RBM7 (Gene 10179), cell cycle genes) was 0.349, the log2FC (gene RCC1 (Gene 1104), cell cycle genes) was -0.365 and the “log2FC REEP4” value (gene REEP4 (Gene 80346), cell cycle genes) was -0.031. For the same compound, the “RET log2FC” value (gene RET (5979), apoptosis genes) was -0.021, the “RHOT2 log2FC” value (gene RHOT2 (89941), apoptosis genes) was -0.087 and the “log2FC RPA2” value (gene RPA2 (Gene 6118), cell cycle genes) was 0.00567. For the same compound, the “RPS3 log2FC” value (gene RPS3 (6188), apoptosis genes) was 0.020, the “RPS6KA2 log2FC” value (gene RPS6KA2 (6196), apoptosis genes) was 0.035 and the log2FC (gene RPS6KB1 (Gene 6198), cell cycle genes) was 0.426. The “RRN3 log2FC” value (gene RRN3 (653390), apoptosis genes) was -0.022, the log2FC (gene RSPO1 (Gene 284654), cell cycle genes) was -0.127 and the “RYR2 log2FC” value (gene RYR2 (6262), apoptosis genes) was -0.020. The “S100A9 log2FC” value (gene S100A9 (6280), apoptosis genes) was 0.039, the “S100A14 log2FC” value (gene S100A14 (57402), apoptosis genes) was 0.034 and the log2FC (gene SART1 (Gene 9092), cell cycle genes) was -0.304. The “SCIN log2FC” value (gene SCIN (85477), apoptosis genes) was -0.012, the log2FC (gene SEH1L (Gene 81929), cell cycle genes) was -0.373 and the “SEMA5A log2FC” value (gene SEMA5A (9037), apoptosis genes) was -0.032.
